One compound from patent publication US20170105981A1, “METHODS FOR STABILIZING HYPOXIA INDUCIBLE FACTOR-2 ALPHA AS A METHOD FOR TREATING CANCER” (The Ohio State Innovation Foundation, priority 2011, published 2017) can be followed below.

In one experiment the test system is Pmel17 mRNA. The experiment can be described thus: Evaluation of lung metastases by Pmel17 mRNA in lungs of B16F10 tumor-bearing mice. Type of experiment: in vivo. The following applies: stabilizer I.P., GM-CSF I.T., vs vehicle control; FIG. 5. Here is the method:
Lung metastases were evaluated by detection of mRNA for melanocyte-specific proteins within the lungs of tumor-bearing mice. B16F10 tumor-bearing mice were treated with GM-CSF and/or the disclosed HIF-2α stabilizer, as depicted in FIG. 3. At the time of sacrifice, lungs were excised and flash-frozen in liquid nitrogen. Frozen lungs were homogenized in liquid nitrogen and the pulverized material was dissolved in TRIzol™ reagent (Invitrogen). […] The melanocyte-specific Pmel17 was detected by nested PCR using a modification of the protocol described by Tsukamoto et al. For the initial reaction, 30 cycles of PCR were carried out (95° C. for 1 minute, 58° C. for 1 min, 72° C. for 1 min) in a 20 μL reaction volume containing 2 μL of cDNA. […] Data were analyzed according to the comparative threshold method and normalized against the GAPDH internal control transcript. Results are semi-quantitative and represent the fold difference in transcript levels in vehicle-treated control mice as compared with levels in mice treated with the disclosed HIF-2α stabilizer and/or GM-CSF.
Lung metastases were evaluated by detection of mRNA for melanocyte-specific proteins within the lungs of tumor-bearing mice. […] Data were analyzed according to the comparative threshold method and normalized against the β-actin internal control transcript. […]

In another experiment the test system is VEGF. The experiment can be described thus: VEGF production by human peripheral blood monocytes (ELISA, real-time PCR). Type of experiment: cell-based. Particulars: monocytes with GM-CSF and compound vs GM-CSF alone; p=0.556; FIG. 11C. Here is the method:
Human peripheral blood mononuclear cells (PBMCs) were isolated from fresh peripheral blood leukocyte source packs (American Red Cross, Columbus Ohio) by density gradient centrifugation over Lymphocyte Separation Medium (Cellgro). Monocytes were purified from total PBMCs by layering over FBS. Monocytes were cultured in endotoxin-free RPMI-1640 supplemented with 1% fetal bovine serum (FBS), 0.1% human serum albumin (HSA), and 10 μg/mL of the endotoxin inhibitor polymyxin B. In some experiments, freshly isolated monocytes were differentiated into macrophages by three-day culture in media containing 10% FBS, 1% PSA (penicillin G sodium, streptomycin sulfate, and amphotericin B), and 20 ng/mL M-CSF. Macrophages were serum-starved for 2 hours prior to stimulation. Monocytes or monocyte-derived macrophages were treated for 24 hours with 10 ng/mL GM-CSF, 10 μM disclosed HIF-2α stabilizer, or an equivalent volume of the vehicle controls (PBS or DMSO, respectively). Cell-free culture supematants were harvested and analyzed for VEGF or sVEGFR-1 by ELISA (R&D Systems).
Human monocytes were left untreated or were stimulated with 100 ng/mL GM-CSF at normoxia or at 0.5% O2. At various time-points, cells were harvested in Trizol reagent (Invitrogen) and RNA was extracted in chloroform and then purified using the RNeasy Minikit (Qiagen). In murine studies, organs harvested at the time of euthanasia were flash-frozen in liquid nitrogen, pulverized in liquid nitrogen, and then dissolved in Trizol. cDNA was generated from 1 μg of RNA using the Superscript First Strand Synthesis System (Invitrogen) and used for real-time PCR using previously described primers and SYBR Green PCR Master Mix (Applied Biosciences), according to the manufacturer's instructions. Data were analyzed according to the comparative threshold method and normalized against the β-actin internal control transcript. Results are semi-quantitative and represent the fold difference in transcript levels in a particular sample as compared with levels in untreated cells from the same donor. […]
A general note: In an ELISA, binding on a coated surface is turned into a signal by an enzyme label.

In a further experiment the test system is HIF-1α. Kind of experiment: Immunoblot for HIF-1α in murine bone marrow-derived macrophages. The class given is cell-based. Particulars: murine bone marrow-derived macrophages treated 18 hours; p=0.105; FIG. 11A. Here is the method:
To generate bone marrow-derived macrophages (BDMs), femoral bone marrow was isolated and progenitor cells were plated in RPMI-1640 supplemented with 10% FBS, 1% PSA, 10 μg/mL of polymyxin B, and 20 ng/mL of recombinant murine M-CSF. Cells were cultured for 5 days with the addition of fresh M-CSF every other day. Differentiated BDM were serum-starved for 2 hours and then treated with 100 ng/mL of murine GM-CSF and/or 25 μM the disclosed HIF-2α stabilizer in RPMI-1640 containing 1% FBS and 10 μg/mL polymixin B. Culture supernatants were collected after 72 hours and assayed for VEGF and sVEGFR-1 content by ELISA (R&D Systems).
In order to confirm the selective upregulation of HIF-2α by the disclosed HIF-2α stabilizer, murine bone marrow-derived macrophages were treated with the disclosed HIF-2α stabilizer for 18 hours, and cells were then lysed and immunoblotted for HIF-1α and HIF-2α.
Background: A western blot detects proteins with antibodies after separation by electrophoresis.

With `O=C(O)CNC(=O)c1ncc(-c2cccc(F)c2)cc1O` [disclosed HIF-2α stabilizer, {[5-(3-Fluorophenyl)-3-hydroxypyridine-2-carbonyl]amino} acetic acid], the “relative metastasis to the lung (Pmel17 mRNA expression)” value in the experiment on Pmel17 mRNA was “reduced metastasis”. Moreover, the VEGF transcript levels result in the experiment on VEGF was “no difference”. Also, the HIF-1α protein entry with HIF-1α is reported as “no corresponding increase”.
